From US10662183B2, “Inhibitors of myocardin-related transcription factor and serum response factor (MRTF/SRF)-mediated gene transcription and methods for use of the same” (THE REGENTS OF THE UNIVERSITY OF MICHIGAN, priority 2014, dated 2020)

System: SRE.L-firefly luciferase reporter (Rho/MKL1 pathway) in PC-3 prostate cancer cells
Assay: SRE.L-luciferase reporter assay
Type: cell-based
Conditions: 19 h, PC-3 cells transfected with Gα12Q231L, SRE.L and pRL-TK reporters; compound 19 hrs
Description: Seed PC-3 prostate cancer cells (40,000 cells/well) were grown in 96-well plates in 10% FBS containing DMEM medium. Cells were transiently transfected with the Ga12QL activator of the Rho/MKL1 pathway, along with the SRE.L-firefly luciferase reporter construct for 6 hours. Additionally, cells were co-transfected with the TK-Renilla luciferase reporter as an indicator of non-specific compound effects. Various concentrations of the compounds disclosed herein were added to the 96-well plates. Plates were incubated for 19 hours at 37° C. and 5% C02 in 0.5% FBS containing DMEM medium. Cells were lysed with IX Passive Lysis Buffer (Promega). Plates were incubated for 30 minutes at room temperature. Luminescence counts were read with a Victor2 (Perkin-Elmer) plate reader.
One hour prior to cell lysis for the dual luciferase assay, 10 μl: per well of WST1 reagent (Roche) was added to the 96-well plates. Plates were incubated for 1 hour at 37° C. and 5% CO2. Cell viability was measured by WST1 absorbance at 450 nm with a Victor2 (Perkin-Elmer) plate reader.
Biological activity of the compounds disclosed herein were assessed in the SRE.L luciferase reporter assay. PC-3 prostate cancer cells were co-transfected with 2 ng of the Gα12Q231L expression plasmid along with 50 ng of the SRE.L and 7 ng of the pRL-TK luciferase reporter plasmids, as described in the Materials and Methods section. Cells were treated with 0 (vehicle, DMSO alone), 1, 3, 10, 30, and 100 μM of a compound disclosed herein for 19 hrs after transfection before lysis. Luminescence was determined as described in the Materials and Methods section. Just before cell lysis, the viability of the cells was measured using the WST-1 cell proliferation reagent as described in the Materials and Methods section. Data are expressed as percentage of inhibition (DMSO alone=0%). The experiments were performed three separate times to achieve n=3 in triplicate.

Structure (SMILES) | IC50 [µM]
CCOC(=O)NC1CC(C(=O)Nc2ccc(Cl)cc2)CN(C(=O)c2cccc(-c3ccco3)c2)C1 (stereo not drawn) [Example E-058, ethyl (5-((4-chlorophenyl)carbamoyl)-1-(3-(furan-2-yl)benzoyl)piperidin-3-yl)carbamate] | 15
O=C(c1cccc(-c2ccco2)c1)N1CC(COc2ccc(Cl)cc2)CC(F)(F)C1 (stereo not drawn) [Example E-059, (5-((4-chlorophenoxy)methyl)-3,3-difluoropiperidin-1-yl) (3-(furan-2-yl)phenyl)methanone] | 31
O=C(c1cccc(-c2ccco2)c1)N1CCCC(NS(=O)(=O)c2ccc(Cl)cc2)C1 (stereo not drawn) [Example E-062, 4-chloro-N-(1-(3-(furan-2-yl)benzoyl)piperidin-3-yl)benzenesulfonamide] | 21
O=C1CC(C(=O)Nc2ccc(Cl)cc2)CN(C(=O)c2cccc(-c3ccco3)c2)C1 (stereo not drawn) [Example E-063, N-(4-chlorophenyl)-1-(3-(furan-2-yl)benzoyl)-5-oxopiperidine-3-carboxamide] | 15
CN(C)C1CC(C(=O)Nc2ccc(Cl)cc2)CN(C(=O)c2cccc(-c3ccco3)c2)C1 (stereo not drawn) [Example E-064, N-(4-chlorophenyl)-5-(dimethylamino)-1-(3-(furan-2-yl)benzoyl)piperidine-3-carboxamide] | 6.9
O=C(NC1CCCN(C(=O)c2cccc(-c3ccco3)c2)C1)c1ccc(Cl)cc1 (stereo not drawn) [Example E-065, 4-chloro-N-(1-(3-(furan-2-yl)benzoyl)piperidin-3-yl)benzamide] | 13
O=C(c1cccc(-c2ccco2)c1)N1CCCC(COc2ccc(Cl)cc2)C1 (stereo not drawn) [Example E-066, (3-((4-chlorophenoxy)methyl)piperidin-1-yl)(3-(furan-2-yl)phenyl)methanone] | 2.3
O=C(Nc1ccc(Cl)cc1)C1CN(C(=O)c2cccc(-n3cccn3)c2)CC(F)(F)C1 (stereo not drawn) [Example E-067, 1-(3-(1H-pyrazol-1-yl)benzoyl)-N-(4-chlorophenyl)-5,5-difluoropiperidine-3-carboxamide] | 7
Cc1oc(-c2ccccc2)nc1C(=O)N1CCCC(C(=O)Nc2ccc(Cl)cc2)C1 (stereo not drawn) [Example E-069, N-(4-chlorophenyl)-1-(5-methyl-2-phenyloxazole-4-carbonyl)piperidine-3-carboxamide] | 1.8
O=C(Nc1ccc(Cl)cc1)C1CN(C(=O)Cc2nc3ccccc3[nH]2)CC(F)(F)C1 (stereo not drawn) [Example E-070, 1-(2-(1H-benzo[d]imidazol-2-yl)acetyl)-N-(4-chlorophenyl)-5,5-difluoropiperidine-3-carboxamide] | 9.1
O=C(Nc1ccc(Cl)cc1)C1CCCN(C(=O)Cc2cc3ccccc3o2)C1 (stereo not drawn) [Example E-071, 1-(2-(benzofuran-2-yl)acetyl)-N-(4-chlorophenyl)piperidine-3-carboxamide] | 12
O=C(Nc1ccc(Cl)cc1)C1CCCN(C(=O)c2ccc3scnc3c2)C1 (stereo not drawn) [Example E-074, 1-(benzo[d]thiazole-5-carbonyl)-N-(4-chlorophenyl)piperidine-3-carboxamide] | > 100
O=C(Nc1ccc(Cl)cc1)C1CN(C(=O)c2ccc3cc[nH]c3c2)CC(F)(F)C1 (stereo not drawn) [Example E-076, N-(4-chlorophenyl)-5,5-difluoro-1-(1H-indole-6-carbonyl)piperidine-3-carboxamide] | 1.6
O=C(Nc1ccc(Cl)cc1)C1CCCN(C(=O)Cc2csc(-c3ccc(F)cc3)n2)C1 (stereo not drawn) [Example E-078, N-(4-chlorophenyl)-1-(2-(2-(4-fluorophenyl)thiazol-4-yl)acetyl)piperidine-3-carboxamide] | 1
O=C(Nc1ccc(Cl)cc1)C1CCCN(C(=O)c2cc3ccc(F)cc3[nH]2)C1 (stereo not drawn) [Example E-079, N-(4-chlorophenyl)-1-(6-fluoro-1H-indole-2-carbonyl)piperidine-3-carboxamide] | 0.92
O=C(Nc1ccc(Cl)cc1)C1CCCN(C(=O)c2n[nH]c3ccccc23)C1 (stereo not drawn) [Example E-088, N-(4-chlorophenyl)-1-(1H-indazole-3-carbonyl)piperidine-3-carboxamide] | 1.5
O=C(Nc1ccc(Cl)cc1)C1CCCN(C(=O)c2ccccc2-n2ccnc2)C1 (stereo not drawn) [Example E-091, 1-(2-(1H-imidazol-1-yl)benzoyl)-N-(4-chlorophenyl) piperidine-3-carboxamide] | 4.1
CS(=O)(=O)c1ccc(NC(=O)C2CCCN(C(=O)c3cccc(-c4ccco4)c3)C2)cc1 (stereo not drawn) [Example E-095, 1-(3-(furan-2-yl)benzoyl)-N-(4-(methylsulfonyl)phenyl) piperidine-3-carboxamide] | 5.5

Stronger by IC50, values ahead:

IC50 [µM] | Structure (SMILES)
0.81 | CC(C)(C(=O)N1CCCC(C(=O)Nc2ccc(Cl)cc2)C1)c1csc(-c2ccc(F)cc2)n1 (stereo not drawn) [Example E-077, N-(4-chlorophenyl)-1-(2-(2-(4-fluorophenyl)thiazol-4-yl)-2-methylpropanoyl)piperidine-3-carboxamide]
0.78 | O=C(Nc1ccc(Cl)cc1)C1CN(C(=O)c2cccc(-c3ccncc3)c2)CC(F)(F)C1 (stereo not drawn) [Example E-068, N-(4-chlorophenyl)-5,5-difluoro-1-(3-(pyridin-4-yl)benzoyl) piperidine-3-carboxamide]
0.71 | O=C(Nc1ccc(Cl)cc1)C1CCCN(C(=O)c2ccccc2-c2ccco2)C1 (stereo not drawn) [Example E-092, N-(4-chlorophenyl)-1-(2-(furan-2-yl)benzoyl)piperidine-3-carboxamide]
0.68 | O=C(Nc1ccc(Cl)cc1)C1CN(C(=O)c2nc3ccccc3[nH]2)CC(F)(F)C1 (stereo not drawn) [Example E-075, 1-(1H-benzo[d]imidazole-2-carbonyl)-N-(4-chlorophenyl)-5,5-difluoropiperidine-3-carboxamide]
0.67 | O=C(Nc1ccc(Cl)cc1)C1CCCN(C(=O)CCc2c[nH]c3ccccc23)C1 (stereo not drawn) [Example E-083, 1-(3-(1H-indol-3-yl)propanoyl)-N-(4-chlorophenyl) piperidine-3-carboxamide]
0.49 | O=C(Nc1ccc(Cl)cc1)C1CCCN(C(=O)c2ccc3cn[nH]c3c2)C1 (stereo not drawn) [Example E-093, N-(4-chlorophenyl)-1-(1H-indazole-6-carbonyl)piperidine-3-carboxamide]
0.46 | O=C(Nc1ccc(Cl)cc1)C1CCCN(C(=O)c2ccc3occc3c2)C1 (stereo not drawn) [Example E-094, 1-(benzofuran-5-carbonyl)-N-(4-chlorophenyl)piperidine-3-carboxamide]
0.45 | O=C(Nc1ccc(Cl)cc1)C1CCCN(C(=O)c2csc(-c3ccccc3)n2)C1 (stereo not drawn) [Example E-073, N-(4-chlorophenyl)-1-(2-phenylthiazole-4-carbonyl)piperidine-3-carboxamide]
0.39 | O=C(Nc1ccc(Cl)cc1)C1CCCN(C(=O)Cc2c[nH]c3ccccc23)C1 (stereo not drawn) [Example E-084, 1-(2-(1H-indol-3-yl)acetyl)-N-(4-chlorophenyl)piperidine-3-carboxamide]
0.37 | O=C(Nc1ccc(Cl)cc1)C1CCCN(C(=O)c2ccc3[nH]ncc3c2)C1 (stereo not drawn) [Example E-082, N-(4-chlorophenyl)-1-(1H-indazole-5-carbonyl)piperidine-3-carboxamide]
0.31 | O=C(Nc1ccc(Cl)cc1)C1CCCN(C(=O)c2cc3ccccc3[nH]2)C1 (stereo not drawn) [Example E-080, N-(4-chlorophenyl)-1-(1H-indole-2-carbonyl)piperidine-3-carboxamide]
0.31 | O=C(Nc1ccc(Cl)cc1)C1CCCN(C(=O)c2cccc3[nH]ncc23)C1 (stereo not drawn) [Example E-085, N-(4-chlorophenyl)-1-(1H-indazole-4-carbonyl)piperidine-3-carboxamide]
0.26 | COc1ccc2[nH]c(C(=O)N3CCCC(C(=O)Nc4ccc(Cl)cc4)C3)cc2c1 (stereo not drawn) [Example E-081, N-(4-chlorophenyl)-1-(5-methoxy-1H-indole-2-carbonyl)piperidine-3-carboxamide]
0.24 | O=C(Nc1ccc(Cl)cc1)C1CCCN(C(=O)c2ccccc2-n2cccn2)C1 (stereo not drawn) [Example E-090, 1-(2-(1H-pyrazol-1-yl)benzoyl)-N-(4-chlorophenyl) piperidine-3-carboxamide]
0.13 | O=C(Nc1ccc(Cl)cc1)C1CCCN(C(=O)c2ccc3[nH]ccc3c2)C1 (stereo not drawn) [Example E-087, N-(4-chlorophenyl)-1-(1H-indole-5-carbonyl)piperidine-3-carboxamide]
0.12 | O=C(Nc1ccc(Cl)cc1)C1CCCN(C(=O)c2nc3ccccc3[nH]2)C1 (stereo not drawn) [Example E-089, 1-(1H-benzo[d]imidazole-2-carbonyl)-N-(4-chlorophenyl)piperidine-3-carboxamide]
0.097 | O=C(Nc1ccc(Cl)cc1)C1CCCN(C(=O)c2ccc3cc[nH]c3c2)C1 (stereo not drawn) [Example E-086, N-(4-chlorophenyl)-1-(1H-indole-6-carbonyl)piperidine-3-carboxamide]
0.084 | Cc1nc(-c2ccccc2)sc1C(=O)N1CCCC(C(=O)Nc2ccc(Cl)cc2)C1 (stereo not drawn) [Example E-072, N-(4-chlorophenyl)-1-(4-methyl-2-phenylthiazole-5-carbonyl)piperidine-3-carboxamide]
